We go through 13 molecules from patent publication US20140377189A1, “PULMONARY ADMINISTRATION OF ROTIGOTINE” (MAP Pharmaceuticals, Inc., priority 2013, published 2014).

A short description of this series: In situ rotigotine salt screening (precipitate formation in ethanol/HFA 227 solution formulation). The settings on record: 10% (w/w) ethanol in HFA 227; for Observation 1 week at 5° C. / Observation Immediate / Observation 1 week at RT: 1 mg/mL rotigotine free base with acid; for Observation 1 week at 5° C.: another week at 5° C. after 1 week at RT; for Observation Immediate: immediately upon preparation; for Observation 1 week at RT: stored 1 week at room temperature. The class given is physicochemical. As to the method: Rotigotine, bulk drug substance, was purchased from Chemagis (Perrigo API). A stock solution of rotigotine was prepared by dissolving rotigotine particles in ethanol at 10 mg/mL. With 1.5 mL rotigotine stock solution added to formulation bottles, each formulation bottle contained 15 mg rotigotine. For preparation of acid stock solutions, it was assumed that complete reaction or ion-pairing between rotigotine and acid. Based on the molecular weight and number of anions of each acid as listed in Table 1, acids stock solutions were prepared by dissolving the required amount in ethanol.
Each formulation bottle was filed with 1.5 mL of rotigotine stock solution and 1.0 ml, of acid stock solution. The formulation bottles (PET bottles) were then sealed with continuous valves and vortexed for 30 seconds to mix the solution well. Finally, 17.6 g of 1,1,1,2,3,3,3-heptafluoropropane (HFA227 (Mexichem)) to make a final volume of 15 mL of rotigotine formulation. All the bottles were hand shaken for 10 seconds.
All in situ salt screening samples were made as 1 mg/mL of rotigtine free base in 10% (w/w) ethanol in HFA 227. Acids corresponding to the salt forms in Table 1 were added according to the molar ratio with rotigotine for complete reaction. As 1 mg/mL was the minimal required dose at the time of experiment, all formulations were tested at this level to screen out non-solution salt formulations.
These were the rotigotine citrate, fumarate, succinate, sulfate, tartrate, xinafoate salt formulations. […] rotigotine salt formulations were immediately ruled out as the precipitate formation was not desired. All clear solution samples were stored at room temperature (RT) for 1 week. […] These were rotigotine acetate, benzoate and mesylate salt formulations. These 3 rotigotine salt formulations were also ruled out as precipitate formation is not desired. The rest of the samples remained as clear solutions (stable) at after another week at 5° C.
Out of the 7 acids that remained a clear solution after 1 week of storage, rotigotine maleate was selected as the lead candidate and suitable as a stable solution for oral pulmonary aerosol delivery.

Take rotigotine glycolate: the “Observation 1 week at 5° C.” value was “solution”, the “Observation Immediate” value is listed as “solution” and the “Observation 1 week at RT” value is given as “solution”.

As for `O=S(=O)(O)O` [Sulfate], the “Observation Immediate” value was “white precipitate”.

Regarding rotigotine pamoate, the “Observation 1 week at 5° C.” value is “solution”, the “Observation Immediate” value was “solution” and the “Observation 1 week at RT” value is “solution”.

In the case of `CC(O)C(=O)O.CCCN(CCc1cccs1)[C@H]1CCc2c(O)cccc2C1` [Lactate, rotigotine lactate], the “Observation 1 week at 5° C.” value is “solution”, the “Observation Immediate” value was “solution” and the “Observation 1 week at RT” value is recorded as “solution”.

For Fumarate, the “Observation Immediate” value is listed as “white precipitate”.

For the molecule rotigotine stearate, the “Observation 1 week at 5° C.” value is given as “solution”, the “Observation Immediate” value is given as “solution” and the “Observation 1 week at RT” value was “solution”.

As for Benzoate, the “Observation Immediate” value is listed as “solution” and the “Observation 1 week at RT” value is “red precipitate”.

As for `CC(=O)O.CCCN(CCc1cccs1)[C@H]1CCc2c(O)cccc2C1` [Acetate, rotigotine acetate], the “Observation Immediate” value is on record as “solution” and the “Observation 1 week at RT” value was “red precipitate”.

Turning to rotigotine citrate, the “Observation Immediate” value is recorded as “white precipitate”.

rotigotine maleate: the “Observation 1 week at 5° C.” value is “solution”, the “Observation Immediate” value is given as “solution” and the “Observation 1 week at RT” value is reported as “solution”. The “stayed in solution formulation at the minimum required concentration” value (minimum required concentration 1 mg/mL) is given as “stayed in solution”.

Turning to Tartrate, the “Observation Immediate” value is “white precipitate”.

Take rotigotine palmitate: the “Observation 1 week at 5° C.” value is given as “solution”, the “Observation Immediate” value was “solution” and the “Observation 1 week at RT” value is given as “solution”.

Consider rotigotine propionate, for which the “Observation 1 week at 5° C.” value is given as “solution”, the “Observation Immediate” value is given as “solution” and the “Observation 1 week at RT” value is reported as “solution”.
